Laboratory results from patent US12325697B2 (Nimbus Clio, Inc., priority 2021, dated 2025).

Target: Recombinant human Cbl-b (aa 36-427) (Homo sapiens (Human), UniProt Q13191)
Assay: Cbl-b Biochemical Assay (TR-FRET)
Conditions: read-out: TR-FRET hCbl-b IC50
Description: Recombinant human Cbl-b (aa 36-427) was expressed in E. coli, purified and biotinylated in vitro. The protein was diluted to 12 nM in freshly prepared assay buffer consisting of 50 mM HEPES, pH 7.0, 100 mM NaCl, 5 mM MgCl2, 0.01% Triton-X 100, 0.01% BSA and 1 mM DTT. Recombinant human Src (aa 254-536)-[…]-Zap-70 (aa 281-297) fusion protein was expressed in E. coli and purified. Protein was diluted in assay buffer to 2-5 nM and supplemented with ATP to 1 mM. Fluorescein-BODIPY labeled UBE[…]([…])-Ub was prepared by conjugating ubiquitin (Ub) labeled at its N-terminus with Fluorescein-BODIPY maleimide (ThermoFisher Catalog no B10250) to E. coli expressed and purified UBE[…]([…]) [see Dou et al Nature Structural and Molecular Biology 8: 982-987, 2013]. Recombinant human UBE2D2([…]) was expressed in E. coli, purified and ubiquitinated and Bodipy labelled in vitro. Protein was diluted to 200 nM in assay buffer without MgCl2 (or Cisbio PPI buffer). Streptavidin-Terbium was added to 2 nM and EDTA to 10 mM, to provide a binding assay mix. Compounds were dissolved in DMSO and diluted to prepare a ten-point dilution series. 100 nl of each compound concentration was dispensed in duplicate in a 384 well black assay plate using acoustic dispensing. Wells for maximum signal controls received 100 nl of DMSO only and wells for minimum signal controls received 100 nl of a reference inhibitor compound at a final assay concentration of […] to produce 100% inhibition. 5 μl of diluted Cbl-b enzyme was added to all wells of the assay plate and incubated at RT for 30-60 min. The enzyme assay was initiated by addition of 5 μl of Src-Zap/ATP mix to all wells, and the plate incubated at RT for 60 min. The enzyme reaction was terminated and the binding reaction was initiated by adding 10 μl of binding assay mix to all wells and incubating the plate at RT for 60 min prior to assay read. Final assay conditions consisted of 6 nM Cbl-b, 1-2.5 nM Src-Zap70, 0.5 mM ATP, 1% (v/v) DMSO (enzyme reaction) and 100 nM UBE2D2([…])-Ub-FL-BODIPY, 5 mM EDTA, 1 nM Streptavidin-Tb (binding reaction). The HTRF assay signal was measured at 520 nm on an Envision plate reader, with reference signal at 485 or 620 nm. Data was normalized using maximum and minimum assay controls: % Inhibition=100-(100*((maximum control)-unknown)/(maximum control-minimum control)). A 4-parameter dose-response equation was used to fit the normalized dose-response data and derive an IC50 for test compounds.

Recombinant human Cbl-b (aa 36-427), sequence (Q13191 36-427): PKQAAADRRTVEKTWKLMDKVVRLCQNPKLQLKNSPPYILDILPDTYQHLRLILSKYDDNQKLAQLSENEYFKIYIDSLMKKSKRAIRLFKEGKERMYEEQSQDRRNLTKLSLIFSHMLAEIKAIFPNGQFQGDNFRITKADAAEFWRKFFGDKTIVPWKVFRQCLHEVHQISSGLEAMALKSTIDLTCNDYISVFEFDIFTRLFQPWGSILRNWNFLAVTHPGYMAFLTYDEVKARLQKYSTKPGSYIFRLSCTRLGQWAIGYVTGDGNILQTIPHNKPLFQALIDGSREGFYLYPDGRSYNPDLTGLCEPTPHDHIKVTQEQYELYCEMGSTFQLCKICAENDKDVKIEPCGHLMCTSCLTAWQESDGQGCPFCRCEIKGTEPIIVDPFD

SMILES | IC50
CCNc1cc(-c2ccccc2-c2nncn2C)cc(N2Cc3c(cc(CN4CCC(F)(F)C(C)C4)cc3C(F)(F)F)C2=O)n1 (centres unmarked) [AK-2, 6-((4,4-Difluoro-3-methylpiperidin-1-yl)methyl)-2-(6-(ethylamino)-4-(2-(4-methyl-4H-1,2,4-triazol-3-yl)phenyl)pyridin-2-yl)-4-(trifluoromethyl)isoindolin-1-one] | ≤ 200 nM
CCNc1cc(-c2c(-c3nncn3C)cnn2C)cc(NC(=O)c2cc(=O)n(CCN3CCCC3)c(C3CC3)n2)n1 [ABL-4, 2-Cyclopropyl-N-(6-(ethylamino)-4-(1-methyl-4-(4-methyl-4H-1,2,4-triazol-3-yl)-1H-pyrazol-5-yl)pyridin-2-yl)-6-oxo-1-(2-(pyrrolidin-1-yl)ethyl)-1,6-dihydropyrimidine-4-carboxamide] | 10000 to 50000 nM
CCNc1cc(-c2c(-c3nncn3C)cnn2C)cc(N2Cc3c(cccc3C(F)(F)F)C2=O)n1 [ACO-1, 2-(6-(Ethylamino)-4-(1-methyl-4-(4-methyl-4H-1,2,4-triazol-3-yl)-1H-pyrazol-5-yl)pyridin-2-yl)-4-(trifluoromethyl)isoindolin-1-one] | ≤ 200 nM
Cn1cnnc1-c1ccccc1-c1cc(C2CC2)nc(N2Cc3c(cc(CN4CCC5(CC5)C4)cc3C(F)(F)F)C2=O)c1 [ACL-1, 6-((5-Azaspiro [2.4]heptan-5-yl)methyl)-2-(6-cyclopropyl-4-(2-(4-methyl-4H-1,2,4-triazol-3-yl)phenyl)pyridin-2-yl)-4-(trifluoromethyl)isoindolin-1-one] | ≤ 200 nM
CCNc1cc(-c2c(-c3nncn3C)cnn2C)cc(N2Cc3c(cc(OCCN4CCCC4)cc3C(F)(F)F)C2=O)n1 [ACN-5, 2-(6-(Ethylamino)-4-(1-methyl-4-(4-methyl-4H-1,2,4-triazol-3-yl)-1H-pyrazol-5-yl)pyridin-2-yl)-6-(2-(pyrrolidin-1-yl)ethoxy)-4-(trifluoromethyl)isoindolin-1-one] | ≤ 200 nM
Cn1cnnc1-c1ccccc1-c1cccc(N2Cc3c(cc(CN4CCC5(CC5)C4)cc3C(F)(F)F)C2=O)c1 [AAQ-1, 6-((5-Azaspiro [2.4]heptan-5-yl)methyl)-2-(2′-(4-methyl-4H-1,2,4-triazol-3-yl)-[1,1′-biphenyl]-3-yl)-4-(trifluoromethyl)isoindolin-1-one] | ≤ 200 nM
CCNc1cc(-c2c(-c3nncn3C)cnn2C)cc(NC(=O)c2cc(CN3CCC4(CC4)C3)cc(C3CC3)n2)n1 [ABF-8, 4-((5-Azaspiro [2.4]heptan-5-yl)methyl)-6-cyclopropyl-N-(6-(ethylamino)-4-(1-methyl-4-(4-methyl-4H-1,2,4-triazol-3-yl)-1H-pyrazol-5-yl)pyridin-2-yl)picolinamide] | ≤ 200 nM
CCNc1cc(-c2c(-c3nncn3C)cnn2C)cc(N2Cc3c(cc(C(=O)N4CC[C@H](O)C4)cc3C(F)(F)F)C2=O)n1 [ACS-4, (S)-2-(6-(Ethylamino)-4-(1-methyl-4-(4-methyl-4H-1,2,4-triazol-3-yl)-1H-pyrazol-5-yl)pyridin-2-yl)-6-(3-hydroxypyrrolidine-1-carbonyl)-4-(trifluoromethyl)isoindolin-1-one] | ≤ 200 nM
CCNc1cc(-c2ccccc2-c2nncn2C)cc(N2Cc3c(cc(CN4CCC[C@H](C)C4)cc3C(F)(F)F)C2=O)n1 [AF-1, (S)-2-(6-(Ethylamino)-4-(2-(4-methyl-4H-1,2,4-triazol-3-yl)phenyl)pyridine-2-yl)6-((3-methylpiperidin-1-yl)methyl)-4-(trifluoromethyl)isoindolin-1-one] | ≤ 200 nM
CCNc1cc(-c2ccccc2-c2nncn2C)cc(N2Cc3c(cc(CN4CC[C@H](F)C4)cc3C(F)(F)F)C2=O)n1 [AJ-1, (S)-2-(6-(Ethylamino)-4-(2-(4-methyl-4H-1,2,4-triazol-3-yl)phenyl)pyridin-2-yl)-6-((3-fluoropyrrolidin-1-yl)methyl)-4-(trifluoromethyl)isoindolin-1-one] | ≤ 200 nM
Cn1cnnc1-c1ccccc1-c1cccc(N2Cc3c(cc(CO)cc3C(F)(F)F)C2=O)c1 [Example P-2, 6-(Hydroxymethyl)-2-(2′-(4-methyl-4H-1,2,4-triazol-3-yl)-[1,1′-biphenyl]-3-yl)-4-(trifluoromethyl)isoindolin-1-one] | 200 to 1000 nM
